Assay results taken from patent US8034904B2, “Anti-IGF-I receptor antibody” (Immunogen Inc., priority 2002, dated 2011).

Columns and labels:
[1] = system: Human non-small cell lung cancer Calu-6 xenografts; format: in vivo; conditions: established 100 mm^3 Calu-6 xenografts; EM164 0.8 mg/mouse i.v. x6; taxol 15 mg/kg i.p. x5
Source text: Human non-small cell lung cancer Calu-6 xenografts were established in immunodeficient mice by subcutaneous injections of 1×10^7 Calu-6 cells.

[2] = system: multiple myeloma; conditions: previously untreated stages I or II myeloma; cited from earlier work
[3] = system: NCI-H838 (lung) cells; assay: Growth and survival of NCI-H838 cells (MTT assay); format: cell-based, human; conditions: NCI-H838 (lung); 10 ng/mL IGF-I, 3- to 4-day
Procedure: (§1) Several human tumor cell lines were tested in serum-free conditions for their growth and survival response to IGF-I. These cell lines were treated with EM164 antibody in the presence of IGF-I, IGF-II, or serum, and their growth and survival responses were measured using an MTT assay after 2-4 days. Approximately 1500 cells were plated in a 96-well plate in regular medium with serum, which was replaced with serum-free medium the following day (either serum-free RPMI medium supplemented with transferrin and BSA, or phenol-red free medium as specified by Dufourny, B. et al., 1997, J. Biol. Chem., 272, 31163-31171). After one day of growth in serum-free medium, the cells were incubated with about 75 μL of 10 μg/mL antibody for 30 min.-3 h, followed by the addition of 25 μL of IGF-I (or IGF-II or serum) solution to obtain a final concentration of 10 ng/mL IGF-I, or 20 ng/mL IGF-II, or 0.04-10% serum. In some experiments, the cells were stimulated first with IGF-I for 15 min before the addition of EM164 antibody, or both IGF-I and EM164 antibody were added together. The cells were then allowed to grow for another 2-3 days. A solution of MTT (3-(4,5)-dimethylthiazol-2-yl)-2,5-diphenyltetrazolium bromide; 25 μL of a 5 mg/mL solution in PBS) was then added and the cells were returned to the incubator for 2-3 h. The medium was then removed and replaced by 100 μL DMSO, mixed, and the absorbance of the plate was measured at 545 nm.

[4] = system: MCF-7 (breast) cells; assay: Growth and survival of MCF-7 cells (MTT assay); format: cell-based, human
Procedure: as §1

[5] = system: SK-LU-1 cells; assay: Growth and survival of SK-LU-1 cells (MTT assay); format: cell-based, human; conditions: 10 ng/mL IGF-I, 3- to 4-day
Procedure: as §1

[6] = system: HT-29 colon cancer cells; assay: Growth and survival of HT-29 cells (MTT assay, colony formation); format: cell-based, human; conditions: HT-29; 10 ng/mL IGF-I, 3- to 4-day
Procedure: as §1

[7] = system: A 549 cells; assay: Growth and survival of A 549 cells (MTT assay); format: cell-based, human; conditions: 10 ng/mL IGF-I, 3- to 4-day
Procedure: as §1, with “A solution of MTT (3-(4,5)-dimethylthiazol-2-yl)-2,5-diphenyltetrazolium bromide; 25 μL of a 5 mg/mL solution in PBS) was then added and the cells were returned to the incubator for 2-3 h.” left out

[8] = system: SK-Mel-37 cells; assay: Growth and survival of SK-Mel-37 cells (MTT assay); format: cell-based, human; conditions: 10 ng/mL IGF-I, 3- to 4-day
Procedure: as §1, with “A solution of MTT (3-(4,5)-dimethylthiazol-2-yl)-2,5-diphenyltetrazolium bromide; 25 μL of a 5 mg/mL solution in PBS) was then added and the cells were returned to the incubator for 2-3 h.” left out

[9] = system: MCF-7 cells; assay: Cell cycle analysis of MCF-7 cells (propidium iodide, flow cytometry); format: cell-based, human; conditions: IGF-I 20 ng/mL with or without EM164 20 μg/mL, 1 day
Procedure: The EM164 antibody caused growth arrest of cells in G0/G1 phase of cell cycle and abrogated the mitogenic effect of IGF-I. For cell cycle analysis, MCF-7 cells were treated with IGF-I (20 ng/mL) in the presence or absence of EM164 (20 μg/mL) for 1 day and then analyzed by propidium iodide staining and flow cytometry.

[10] = system: NCI-H596 cells; assay: Growth and survival of NCI-H596 cells (MTT assay); format: cell-based, human; conditions: 10 ng/mL IGF-I, 3- to 4-day
Procedure: as §1

[11] = system: RD (rhabdomyocarcoma) cells; assay: Growth and survival of RD cells (MTT assay); format: cell-based, human; conditions: 10 ng/mL IGF-I, 3- to 4-day
Procedure: as §1

[12] = system: SK-N-SH (neuroblastoma) cells; assay: Growth and survival of SK-N-SH cells (MTT assay); format: cell-based, human; conditions: 10 ng/mL IGF-I, 3- to 4-day
Procedure: as §1

[13] = system: Calu-6 non-small cell lung cancer cells; assay: Growth and survival of Calu-6 cells (MTT assay); format: cell-based, human; conditions: 10 ng/mL IGF-I, 3- to 4-day
Procedure: as §1

[14] = system: HT-3 (cervical) cells; assay: Growth and survival of HT-3 cells (MTT assay); format: cell-based, human; conditions: 10 ng/mL IGF-I, 3- to 4-day
Procedure: as §1, with “A solution of MTT (3-(4,5)-dimethylthiazol-2-yl)-2,5-diphenyltetrazolium bromide; 25 μL of a 5 mg/mL solution in PBS) was then added and the cells were returned to the incubator for 2-3 h.” left out

[15] = system: A 431 (epidermoid) cells; assay: Growth and survival of A 431 cells (MTT assay); format: cell-based, human; conditions: 10 ng/mL IGF-I, 3- to 4-day
Procedure: as §1

[16] = system: A 375 (melanoma) cells; assay: Growth and survival of A 375 cells (MTT assay); format: cell-based, human; conditions: 10 ng/mL IGF-I, 3- to 4-day
Procedure: as §1

[17] = system: SaOS-2 (osteosarcoma) cells; assay: Growth and survival of SaOS-2 cells (MTT assay); format: cell-based, human; conditions: 10 ng/mL IGF-I, 3- to 4-day
Procedure: as §1

[18] = system: Colo 205 (colon) cells; assay: Growth and survival of Colo 205 cells (MTT assay); format: cell-based, human; conditions: 10 ng/mL IGF-I, 3- to 4-day
Procedure: as §1

[19] = Bhuyan et al., 1982; cited from earlier work
[20] = system: biotinylated full-length human IGF-I receptor; assay: ELISA binding competition of humanized/chimeric versus murine EM164
Chain of biotinylated full-length human IGF-I receptor (P08069 31-498 limits assumed): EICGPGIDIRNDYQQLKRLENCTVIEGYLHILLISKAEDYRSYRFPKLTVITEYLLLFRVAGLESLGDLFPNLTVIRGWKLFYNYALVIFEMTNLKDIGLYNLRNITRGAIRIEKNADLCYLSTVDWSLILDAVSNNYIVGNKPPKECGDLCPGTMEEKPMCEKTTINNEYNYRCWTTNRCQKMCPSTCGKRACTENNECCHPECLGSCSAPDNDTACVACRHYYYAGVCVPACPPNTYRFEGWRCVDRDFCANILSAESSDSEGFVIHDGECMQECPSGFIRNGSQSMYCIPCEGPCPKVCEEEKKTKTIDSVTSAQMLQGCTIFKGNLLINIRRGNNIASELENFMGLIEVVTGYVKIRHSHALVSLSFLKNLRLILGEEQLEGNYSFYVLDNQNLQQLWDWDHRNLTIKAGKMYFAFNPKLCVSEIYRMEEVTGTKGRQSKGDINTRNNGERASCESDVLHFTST
Procedure: The affinities of the humanized EM164 antibody versions 1.0-1.3 were compared to those of murine EM164 antibody through binding competition assays using biotinylated full-length human IGF-I receptor or myc-epitope tagged truncated IGF-I receptor alpha chain, as described above. Humanized EM164 antibody samples were obtained by transient transfection of the appropriate expression vectors in human embryonic kidney 293T cells, and antibody concentrations were determined by ELISA using purified humanized antibody standards. For ELISA binding competition measurements, mixtures of humanized antibody samples and various concentrations of murine EM164 antibody were incubated with indirectly captured biotinylated full-length IGF-I receptor or myc-epitope tagged truncated IGF-I receptor alpha chain. After equilibration, the bound humanized antibody was detected using a goat-anti-human-Fab′2-antibody-horseradish peroxidase conjugate. Plots of ([bound murine Ab]/[bound humanized Ab]) vs ([murine Ab]/[humanized Ab]), which theoretically yield a straight line with slope=(Kd humanized Ab/Kd murine Ab), were used to determine the relative affinities of the humanized and murine antibodies.
An Immulon-2HB ELISA plate was coated with 100 μL of 5 μg/mL streptavidin per well in carbonate buffer at ambient temperature for 7 h. […] The wells were then washed with TBS-T buffer and incubated with goat-anti-human-Fab′2-antibody-horseradish peroxidase conjugate for 1 h (100 μL; 1 μg/mL in blocking buffer), followed by washes and detection using ABTS/H2O2 substrate at 405 nm.

[21] = target: biotinylated human IGF-I receptor; assay: ELISA binding titration (Kd) with biotinylated IGF-I receptor; conditions: ELISA titration, non-linear regression for one-site binding; read-out: dissociation constant (Kd)
Chain of biotinylated human IGF-I receptor (P08069 31-736 limits assumed): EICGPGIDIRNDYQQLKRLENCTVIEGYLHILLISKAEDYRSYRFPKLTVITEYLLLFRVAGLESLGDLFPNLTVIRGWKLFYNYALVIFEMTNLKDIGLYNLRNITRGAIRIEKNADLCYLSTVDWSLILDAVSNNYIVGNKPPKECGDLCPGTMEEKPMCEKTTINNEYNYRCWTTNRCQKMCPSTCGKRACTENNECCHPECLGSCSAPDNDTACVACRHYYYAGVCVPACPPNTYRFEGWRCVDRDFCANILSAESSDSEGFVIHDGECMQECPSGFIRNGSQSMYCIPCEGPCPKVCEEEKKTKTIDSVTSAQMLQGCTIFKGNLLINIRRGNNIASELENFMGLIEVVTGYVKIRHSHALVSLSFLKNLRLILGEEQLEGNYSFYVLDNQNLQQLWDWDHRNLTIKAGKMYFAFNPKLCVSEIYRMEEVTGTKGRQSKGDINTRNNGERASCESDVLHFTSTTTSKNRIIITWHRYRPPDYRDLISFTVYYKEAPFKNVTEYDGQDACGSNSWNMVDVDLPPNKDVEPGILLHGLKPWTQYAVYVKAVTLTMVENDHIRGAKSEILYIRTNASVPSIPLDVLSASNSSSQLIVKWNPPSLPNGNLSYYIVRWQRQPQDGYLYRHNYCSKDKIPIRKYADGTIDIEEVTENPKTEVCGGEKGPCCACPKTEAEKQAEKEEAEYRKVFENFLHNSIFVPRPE
Chain of biotinylated human IGF-I receptor (P08069 741-935 limits assumed): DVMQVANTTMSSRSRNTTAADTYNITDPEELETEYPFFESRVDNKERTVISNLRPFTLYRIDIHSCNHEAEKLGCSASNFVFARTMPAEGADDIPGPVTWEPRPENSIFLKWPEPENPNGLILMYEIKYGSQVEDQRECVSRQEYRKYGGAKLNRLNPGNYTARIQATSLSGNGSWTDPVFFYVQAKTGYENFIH
Procedure: The wells were next washed with TBS-T buffer and incubated with goat-anti-mouse-IgGH+L-antibody-horseradish peroxidase conjugate (100 μL; 0.5 μg/mL in blocking buffer), followed by washes and detection using ABTS/H2O2 substrate at 405 nm. The value of Kd was estimated by non-linear regression for one-site binding.
A similar binding titration was carried out using the Fab fragment of EM164 antibody, prepared by papain digestion of the antibody as described by E. Harlow and D. Lane (“Using Antibodies: A Laboratory Manual”; 1999, Cold Spring Harbor Laboratory Press, New York).

With `CC(=O)O[C@H]1C(=O)[C@@]2(C)[C@H]([C@H](OC(=O)c3ccccc3)[C@]3(O)C[C@H](OC(=O)[C@H](O)[C@@H](NC(=O)c4ccccc4)c4ccccc4)C(C)=C1C3(C)C)[C@]1(OC(C)=O)CO[C@@H]1C[C@@H]2O` [taxol, reference compound] the growth of tumors [1] was “effective until day 14”.

For IFN-α, the “patients who responded to treatment” value [2] is given as 7 of 14.

With “IGF-I: insulin-like growth factor-I, ligand of the IGF-I receptor used as growth stimulant [reference compound]” the “Fold growth response to IGF-I (MTT assay: ratio for IGF-I treated vs untreated cells in serum-free medium)” value [3] was 3, the “Fold growth response to IGF-I (MTT assay: ratio for IGF-I treated vs untreated cells in serum-free medium)” value ([4]; MCF-7 (breast), 10 ng/mL IGF-I, 3- to 4-day) was 1.7-2.8 and the “Fold growth response to IGF-I (MTT assay: ratio for IGF-I treated vs untreated cells in serum-free medium)” value [5] was 1.4. For the same molecule, the “Fold growth response to IGF-I (MTT assay: ratio for IGF-I treated vs untreated cells in serum-free medium)” value [6] was 1.5, the “Fold growth response to IGF-I (MTT assay: ratio for IGF-I treated vs untreated cells in serum-free medium)” value [7] was 1.2 and the “Fold growth response to IGF-I (MTT assay: ratio for IGF-I treated vs untreated cells in serum-free medium)” value [8] was 1.4. The “cells in the G0/G1 phase” value [9] was 50%, the “cells in the S phase” value [9] was 41% and the “Fold growth response to IGF-I (MTT assay: ratio for IGF-I treated vs untreated cells in serum-free medium)” value [10] was 1.4. For the same molecule, the “Fold growth response to IGF-I (MTT assay: ratio for IGF-I treated vs untreated cells in serum-free medium)” value [11] was 1.7, the “Fold growth response to IGF-I (MTT assay: ratio for IGF-I treated vs untreated cells in serum-free medium)” value [12] was 2 and the “Fold growth response to IGF-I (MTT assay: ratio for IGF-I treated vs untreated cells in serum-free medium)” value [13] was 1.6-1.8. For the same molecule, the “Fold growth response to IGF-I (MTT assay: ratio for IGF-I treated vs untreated cells in serum-free medium)” value [14] was 2, the “Fold growth response to IGF-I (MTT assay: ratio for IGF-I treated vs untreated cells in serum-free medium)” value [15] was 2.2 and the “Fold growth response to IGF-I (MTT assay: ratio for IGF-I treated vs untreated cells in serum-free medium)” value [16] was 1.6. The “Fold growth response to IGF-I (MTT assay: ratio for IGF-I treated vs untreated cells in serum-free medium)” value [17] was 2.5 and the “Fold growth response to IGF-I (MTT assay: ratio for IGF-I treated vs untreated cells in serum-free medium)” value [18] was 2.3.

In the case of `COc1c(O)c2c(c3cc(C(=O)N4CCc5c4c(O)c(OC)c4[nH]c(C(=O)N6CC7CC78C6=CC(=O)c6[nH]cc(C)c68)cc54)[nH]c13)CCN2C(N)=O` (stereo not shown) [CC-1065], the “potency in vitro relative to doxorubicin, methotrexate and vincristine” value [19] is listed as “about 1000 fold”.

B1: chimeric version of EM164 antibody with 92F→C mutation: chimeric version of EM164 antibody with 92F→C mutation in heavy chain (antibody, V domains shown)
VH: QVQLQQSGAELVKPGASVKLSCKASGYTFTSYWMHWVKQRPGQGLEWIGEINPSNGRTNYNEKFKRKATLTVDKSSSTAYMQLSSLTSEDSAVYYCARGRPDYYGSSKWYFDVWGAGTTVTVSS
VL: DVLMTQTPLSLPVSLGDQASISCRSSQSIVHSNVNTYLEWYLQKPGQSPKLLIYKVSNRFSGVPDRFSGSGSGTDFTLRISRVEAEDLGIYYCFQGSHVPPTFGGGTKLEIK
In the case of B1, the “lower affinity than murine EM164 antibody for binding to IGF-I receptor” value [20] is reported as 3 fold and the “slope in binding competition with murine EM164 antibody” value ([20]; similar binding competition) is reported as “about 3”.

B2: Fab fragment of EM164 antibody: Fab fragment of EM164 antibody, prepared by papain digestion (antibody, V domains shown)
VH: QVQLQQSGAELVKPGASVKLSCKASGYTFTSYWMHWVKQRPGQGLEWIGEINPSNGRTNYNEKFKRKATLTVDKSSSTAYMQLSSLTSEDSAVYYFARGRPDYYGSSKWYFDVWGAGTTVTVS
VL: DVLMTQTPLSLPVSLGDQASISCRSSQSIVHSNVNTYLEWYLQKPGQSPKLLIYKVSNRFSGVPDRFSGSGSGTDFTLRISRVEAEDLGIYYCFQGSHVPPTFGGGTKLEIKR
B2 showed a Kd [21] of 0.3 nM.

B3: humanized EM164 v1.0: resurfaced EM164 with all 10 human surface residues (light chain aa3 V, aa45 R) (antibody, V domains shown)
VH: QVQLVQSGAEVVKPGASVKLSCKASGYTFTSYWMHWVKQRPGQGLEWIGEINPSNGRTNYNQKFQGKATLTVDKSSSTAYMQLSSLTSEDSAVYYFARGRPDYYGSSKWYFDVWGQGTTVTVS
VL: DVVMTQTPLSLPVSLGDPASISCRSSQSIVHSNVNTYLEWYLQKPGQSPRLLIYKVSNRFSGVPDRFSGSGAGTDFTLRISRVEAEDLGIYYCFQGSHVPPTFGGGTKLEIKR
For B3, the “slope (=Kd humanized Ab / Kd murine Ab)” value ([20]; biotinylated IGF-I receptor, FIG. 11, r^2=0.996) was 0.52 and the “inhibition of serum-stimulated growth and survival of MCF-7 cells, compared with murine EM164” value [4] was “similar”.
